Series [1] can be described thus: Glucagon solubility assay. The settings on record: Table 10.
For another series, the target named is GLP-1 Receptor (Homo sapiens, UniProt P43220). Briefly: Functional assay, cAMP induction (luciferase reporter, HEK293) at GLP-1 receptor. The class given is cell-based. A general note: Reporter assays use an easily measured gene product as a stand-in for the process of interest.
In series [2] the target is T1, Glucagon Receptor (Homo sapiens, UniProt P47871). Briefly: Glucagon receptor binding assay (scintillation proximity competition binding). The following applies: read-out: IC50 (nM) (Receptor binding); Table 11; ND: not detected.
Series [3] addresses T1, Glucagon Receptor. Briefly: cAMP inhibition: antagonism of glucagon-induced cAMP at glucagon receptor. The class given is cell-based. More on the design: expressed in transfected cells; host or cells: HEK293.
The conditions of series [4]: pH 7.
In series [5] the target is T1, Glucagon Receptor. Briefly: Functional assay, cAMP induction (luciferase reporter, HEK293) at glucagon receptor. The class given is cell-based. More on the design: expressed in transfected cells; host or cells: HEK293.

The IC50 is the concentration at which inhibition is half-maximal. In general, EC50 refers to the concentration at which the effect is half-maximal.

Square brackets hold non-standard residues; d marks the D form. Ends that are not written are not given here. Peptide text beside a SMILES is read from it. PhLac = O=C(O)[C@@H](O)Cc1ccccc1

T1 sequence (P47871 26-477): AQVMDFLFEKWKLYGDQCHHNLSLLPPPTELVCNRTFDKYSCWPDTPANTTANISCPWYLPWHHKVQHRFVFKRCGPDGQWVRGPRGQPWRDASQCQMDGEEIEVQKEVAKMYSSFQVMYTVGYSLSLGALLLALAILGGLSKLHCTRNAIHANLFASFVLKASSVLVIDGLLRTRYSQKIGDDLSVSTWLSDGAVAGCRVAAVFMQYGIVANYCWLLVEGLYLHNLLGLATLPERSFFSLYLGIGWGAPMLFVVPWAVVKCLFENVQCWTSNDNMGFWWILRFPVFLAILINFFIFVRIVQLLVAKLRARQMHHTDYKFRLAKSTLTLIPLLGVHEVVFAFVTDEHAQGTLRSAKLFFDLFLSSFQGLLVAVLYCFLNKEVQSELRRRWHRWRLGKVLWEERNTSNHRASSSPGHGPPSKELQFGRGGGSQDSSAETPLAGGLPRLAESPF
Sequence of GLP-1 Receptor (P43220 24-463): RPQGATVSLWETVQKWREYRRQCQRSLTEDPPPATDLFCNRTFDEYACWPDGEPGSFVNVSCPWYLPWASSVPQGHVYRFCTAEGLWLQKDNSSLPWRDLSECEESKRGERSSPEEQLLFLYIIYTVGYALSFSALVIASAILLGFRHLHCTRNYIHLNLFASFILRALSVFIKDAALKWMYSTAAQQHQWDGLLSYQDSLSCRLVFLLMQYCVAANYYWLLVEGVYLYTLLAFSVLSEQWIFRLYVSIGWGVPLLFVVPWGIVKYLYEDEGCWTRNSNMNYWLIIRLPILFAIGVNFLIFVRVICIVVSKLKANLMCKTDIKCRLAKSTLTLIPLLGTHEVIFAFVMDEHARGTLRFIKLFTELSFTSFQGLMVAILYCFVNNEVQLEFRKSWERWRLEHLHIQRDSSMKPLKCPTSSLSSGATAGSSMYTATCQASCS

For the compound `CSCC[C@H](NC(=O)[C@H](CC(C)C)NC(=O)[C@H](Cc1c[nH]c2ccccc12)NC(=O)[C@H](CCC(N)=O)NC(=O)[C@@H](NC(=O)[C@H](Cc1ccccc1)NC(=O)[C@H](CC(=O)O)NC(=O)[C@H](CCC(N)=O)NC(=O)[C@H](C)NC(=O)[C@H](CCCNC(=N)N)NC(=O)[C@H](CCCNC(=N)N)NC(=O)[C@H](CO)NC(=O)[C@H](CC(=O)O)NC(=O)[C@H](CC(C)C)NC(=O)[C@H](Cc1ccc(O)cc1)NC(=O)[C@H](CCCCN)NC(=O)[C@H](CO)NC(=O)[C@H](Cc1ccc(O)cc1)NC(=O)[C@H](CC(=O)O)NC(=O)[C@H](CO)NC(=O)[C@@H](NC(=O)[C@@H](O)Cc1ccccc1)[C@@H](C)O)C(C)C)C(=O)N[C@@H](CC(N)=O)C(=O)N[C@H](C(N)=O)[C@@H](C)O` [[PLA^6, D^9]Glucagon(aa6-29)-NH2] (H-[PhLac]TSDYSKYLDSRRAQDFVQWLMNT-NH2), the “Solubility (%, pH 6-8)” value in series [1] worked out at 11%.

Turning to `CSCC[C@H](NC(=O)[C@H](CC(C)C)NC(=O)[C@H](Cc1c[nH]c2ccccc12)NC(=O)[C@H](CCC(N)=O)NC(=O)[C@@H](NC(=O)[C@H](Cc1ccccc1)NC(=O)[C@H](CC(=O)O)NC(=O)[C@H](CCC(N)=O)NC(=O)[C@H](C)NC(=O)[C@H](CCCNC(=N)N)NC(=O)[C@H](CCCNC(=N)N)NC(=O)[C@H](CO)NC(=O)[C@H](CC(=O)O)NC(=O)[C@H](CC(C)C)NC(=O)[C@H](Cc1ccc(O)cc1)NC(=O)[C@H](CCCCN)NC(=O)[C@H](CO)NC(=O)[C@H](Cc1ccc(O)cc1)NC(=O)[C@H](CCC(=O)O)NC(=O)[C@H](CO)NC(=O)[C@@H](NC(=O)[C@@H](O)Cc1ccccc1)[C@@H](C)O)C(C)C)C(=O)N[C@@H](CC(N)=O)C(=O)N[C@H](C(=O)NCC(=O)N1CCC[C@H]1C(=O)N[C@@H](CO)C(=O)N[C@@H](CO)C(=O)NCC(=O)N[C@@H](C)C(=O)N1CCC[C@H]1C(=O)N1CCC[C@H]1C(=O)N1CCC[C@H]1C(=O)N[C@@H](CO)C(N)=O)[C@@H](C)O` [[PLA^6, E^9]Glucagon (aa6-29 + CEX)-NH2] (H-[PhLac]TSEYSKYLDSRRAQDFVQWLMNTGPSSGAPPPS-NH2), the “Solubility (%, pH 6-8)” value in series [1] worked out at 16%.

With `CSCC[C@H](NC(=O)[C@H](CC(C)C)NC(=O)[C@H](Cc1c[nH]c2ccccc12)NC(=O)[C@H](CCC(N)=O)NC(=O)[C@@H](NC(=O)[C@H](Cc1ccccc1)NC(=O)[C@H](CC(=O)O)NC(=O)[C@H](CCC(N)=O)NC(=O)[C@H](C)NC(=O)[C@H](CCCNC(=N)N)NC(=O)[C@H](CCCNC(=N)N)NC(=O)[C@H](CO)NC(=O)[C@H](CC(=O)O)NC(=O)[C@H](CC(C)C)NC(=O)[C@H](Cc1ccc(O)cc1)NC(=O)[C@H](CCCCN)NC(=O)[C@H](CO)NC(=O)[C@H](Cc1ccc(O)cc1)NC(=O)[C@H](CCC(=O)O)NC(=O)[C@H](CO)NC(=O)[C@@H](NC(=O)[C@@H](O)Cc1ccccc1)[C@@H](C)O)C(C)C)C(=O)N[C@@H](CC(N)=O)C(=O)N[C@H](C(N)=O)[C@@H](C)O` [[PLA^6, E^9]Glucagon(aa6-29)-NH2] (H-[PhLac]TSEYSKYLDSRRAQDFVQWLMNT-NH2), the “GLP-1 agonism EC50(nM)” value at GLP-1 Receptor (Table 25) is “No agonism”. For the same compound, in series [1], the “Solubility (%, pH 6-8)” value is reported as 11%. Besides, the IC50 on Glucagon Receptor [2] was found to be 12.3 ± 0.13 nM; at Glucagon Receptor [3] (Glucagon antagonism IC50(nM, inhibit 0.5nM G), Table 25), 23.7 ± 4.16 nM.

Take “Glucagon Cys^17 Mal-PEG-5K [Glucagon, Cys17PEG5K]”: the “Percent Soluble” value in series [4] was determined as 94%.

Regarding “Glucagon Cys^24 maleimido, PEG-3.4K-dimer [Glucagon C24 Dimer]”, the EC50 on Glucagon Receptor [5] (read-out: cAMP Induction Glucagon Receptor EC50, Table 3, pegylated analogs) is 0.1 ± 0.05 nM.

In the case of “HSQGTFTSDYARYLDARRAREFIKWLVRGRG-NH2 [ANK2 (Bayer peptide), reference compound]”, on GLP-1 Receptor, the “GLP-1 agonism, in words” value is reported as “very potent GLP-1 agonism”. In addition, at Glucagon Receptor [5], the “glucagon agonism, in words” value is “weak, but full glucagon agonism”. In addition, the “glucagon antagonism, in words” value at Glucagon Receptor [3] is on record as “no meaningful glucagon antagonism”. Further, the “Glucagon IC50 (nM)” value on Glucagon Receptor [3] (Table 14) is “agonist”. Moreover, the “Glucagon antagonism IC50 (nM, inhibit 0.8 nM glucagon)” value at Glucagon Receptor [3] (Table 19) is “weak agonist”.

These data come from US8980830B2 (priority 2007, dated 2015).
